Reference: ChEMBL document CHEMBL1133110, “bis-Quinolinium cyclophanes: 8,14-diaza-1,7(1, 4)-diquinolinacyclotetradecaphane (UCL 1848), a highly potent and selective, nonpeptidic blocker of the apamin-sensitive Ca(2+)-activated K(+) channel” (J Med Chem, 2000)

Key:
[1] = Equieffective molar ratio is ratio of the concentration of the test compound and dequalinium that cause 50% inhibition of AHP
Rattus norvegicus [2] = species on record: Rattus norvegicus; assay: tested for their ability to inhibit the after- hyperpolarization in cultured rat sympathetic neurons; format: functional, Sympathetic neuron
Rattus norvegicus [3] = species on record: Rattus norvegicus; assay: tested for their ability to inhibit the after- hyperpolarization in cultured rat sympathetic neurons (omitting the comparison with dequalinium); format: functional; details: Sympathetic neuron
Rattus norvegicus [4] = species on record: Rattus norvegicus; assay: tested for their ability to inhibit the after- hyperpolarization (AHP) in cultured rat sympathetic neurons; format: functional; details: Sympathetic neuron
[5] = Rattus norvegicus, Sympathetic neuron

[I-].[I-].c1ccc2c(c1)c1cc[n+]2CCCCC[n+]2ccc(c3ccccc32)NCCCCCN1
EMR [1]: 0.003 | IC50 (Rattus norvegicus [2]; [5]): 2 nM | IC50 (Rattus norvegicus [3]): 2.7 nM

[I-].[I-].c1ccc2c(c1)c1cc[n+]2CCC[n+]2ccc(c3ccccc32)NCCCN1 (stereo in doubt; form 1)
EMR [1]: 0.27 | IC50 (Rattus norvegicus [2]; sympathetic neuron): 130 nM

Cc1cc(N)c2ccccc2[n+]1CCCCCCCCCC[n+]1c(C)cc(N)c2ccccc21.[Cl-].[Cl-] [DEQUALINIUM CHLORIDE]
IC50 (Rattus norvegicus [4]): 490 nM | EMR [1]: 1

[I-].[I-].c1ccc2c(c1)c1cc[n+]2CCCCCCCCCC[n+]2ccc(c3ccccc32)NCCCCCCCCCCN1
EMR [1]: 0.44 | IC50 (Rattus norvegicus [2]; [5]): 260 nM

[I-].[I-].c1ccc2c(c1)c1cc[n+]2CCCCCCCC[n+]2ccc(c3ccccc32)NCCCCCCCCN1
EMR [1]: 0.43 | IC50 (Rattus norvegicus [2]; [5]): 190 nM

[I-].[I-].c1ccc2c(c1)c1cc[n+]2CCCC[n+]2ccc(c3ccccc32)NCCCCN1
EMR [1]: 0.09 | IC50 (Rattus norvegicus [2]; [5]): 40 nM

c1cc2cc(c1)C[n+]1ccc(c3ccccc31)NCc1ccc(cc1)CNc1cc[n+](c3ccccc13)C2
EMR [1]: 0.01

[I-].[I-].c1ccc2c(c1)c1cc[n+]2CCC[n+]2ccc(c3ccccc32)NCCCN1 (stereo in doubt; form 2)
EMR [1]: 0.77 | IC50 (Rattus norvegicus [2]; sympathetic neuron): 380 nM

[I-].[I-].c1ccc2c(c1)c1cc[n+]2CCCCCC[n+]2ccc(c3ccccc32)NCCCCCCN1
EMR [1]: 0.1 | IC50 (Rattus norvegicus [2]; [5]): 60 nM
